Tests used:
[1] = test system: cerebellar granule neurons; assay: release of FM1-43-loaded synaptic vesicles from cerebellar granule neurons under continuous stimulus; format: cell-based, rat
Method: Granule neurons were grown for 7 days and rendered hormone free by growth in serum-free medium as detailed above. Coverslips were then placed in a perfusion chamber, mounted on the stage of a laser scanning confocal microscope and perfused at 1 ml/min at 25° C. with perfusion buffer (119 mM NaCl, 2.5 mM KCl, 2 mM CaCl2, 2 mM MgCl2, 25 mM HEPES (pH 7.4), 30 mM glucose, and […] AP-5). The effects of different hormones on synaptic vesicle trafficking were then determined. […] Depolarizing KCl was then removed from the perfusion buffer and the cells were exposed to FM1-43 for an additional 30 seconds to insure complete loading of recycling synaptic vesicles. Loaded cells were then washed free of dye and the cells were perfused for ten minutes at rest.
Images of a single field of neuronal fibers were then taken immediately before adding a second depolarizing solution (perfusion buffer containing 50 mM KCl) and at one and two minutes after beginning the continuous stimulation by 50 mM KCl. Thirty to forty-five individual FM1-43 labeled nerve terminals were identified in the baseline images (taken prior to depolarization) and the change in fluorescence (DF) for each nerve terminal determined at the one and two minute time points. FIGS. 11A and 11B show the results of analysis of the hormone specificity of synaptic vesicle trafficking (FIG. 11A) and the influence of individual myo5a mutants (FIG. 11B) on synaptic vesicle transport in granule neurons.
To evaluate the role of myo5a in synaptic vesicle transport, three different myo5a constructs were introduced into the neurons by replication-deficient adenoviral vectors (Δmyo5a^tail(MyoV^tail), Δmyo5a^c-term(MyoV^1830)and ΔMyo5a^CC(MyoV^cc) see FIG. 5) as described above. […] Neurons were infected with purified Ad5-constructs (MOI=10) 48 hours prior to the synaptic vesicle trafficking study, and allowed to recover in hormone (T4) supplemented medium. […] This modest influence of the VBD mutant on synaptic vesicle retention is likely to be due to the loss of the kinesin-binding domain that limits its delivery to nerve terminals.

[2] = test system: cerebellar granule neurons; assay: FM1-43 synaptic vesicle recycling in cultured cerebellar granule neurons, spontaneous activity; format: cell-based, rat
Method: All of the major components of hormone-induced vesicle trafficking in astrocytes (actin fibers, myosin V (also referred to as myosin 5a and myo 5a), and recycling vesicles) are also present in nerve terminals. Therefore, the effects of thyroid hormone on synaptic vesicle recycling in the presynaptic nerve terminal were examined using myo5a-dependent synaptic vesicle (SV) recycling in cultured cerebellar granule neurons. In these experiments, rat granule neurons were grown on laminin-coated coverslips in the absence or presence of hormone and synaptic vesicle recycling was examined using FM1-43 (a styryl dye used in the art for studying endocytosis and exocytosis, e.g., in synaptic vesicle uptake and release assays; Molecular Probes, Inc. Eugene, Oreg.). […] In contrast, granule neurons grown in thyroid hormone supplemented medium released only 15-20% of the FM1-43 after six minutes of incubation and the hormone specificity of retention of FM1-43 in the “reserve pool” was identical to that determined for myo5a-dependent, endocytosis of p29 vesicles (D2p29 vesicles) in astrocytes.
Cerebellar granule neurons were examined because thyroid hormone has a profound influence on granule neuron viability during cerebellar maturation (Xiao and Nikodem, 1998, Front. Biosci. 3: A52-57; Rabie et al., 1980, Brain Res. 190:409-414), and because of the effects of the loss of myo5a on synaptic vesicle homeostasis (Bridgman, 1999, J. Cell Biol. 146:1045-1060). […]
Experiments were conducted to determine whether synaptic vesicle endocytosis could be altered by the hormone status of the neuron. […] The dye was then removed and the number, intensity and retention of the FM1-43 in random nerve terminals immediately after washing and after six minutes of autonomous activity were analyzed in paraformaldehyde fixed cells (Ryan, 1999, J. Neurosci.: 19:1317-1323). Fluorescence in single nerve terminals (ROI=7×7 pixels) and in an adjacent segment of the neuronal fiber were measured for 40-45 individual nerve terminals. […] Fluorescence intensity was determined using NIH Image software. The total FM1-43 fluorescence in a nerve terminal represents the sum of the dye-loaded synaptic vesicles in the readily releasable and the reserve pools.
By allowing recurrent activity, the FM1-43 filled synaptic vesicles present in the readily releasable pool will be progressively depleted. […] By measuring the total FM1-43 content in random nerve terminals immediately after loading and at 30 second intervals for six minutes of spontaneous activity, the influence of hormones on the distribution of recycling synaptic vesicles between the readily releasable and reserve pools was estimated.

[3] = test system: binding of p29^GFP vesicles to F-actin; assay: modified in vitro actin binding assay with p29^GFP-labeled vesicles; format: biochemical, rat; details: for competition with native myosin V for T4-dependent binding of p29 to F-actin: ~2-3 pmol polypeptide/50 μl mixture, 10 nM T4
Method: To define the specific region(s) of the myosin V tail that interact with the p29 vesicle, a series of deletion mutations were created based on the dominant negative effect of exogenous myosin V tail on p29 vesicle binding. Competition analysis of the myosin V deletion mutations on T4-dependent binding of p29 vesicles to F-actin was performed using a modified in vitro assay in which a GFP-tagged p29 fusion protein (p29^GFP) replaced the radioaffinity labeled native p29 (Farwell et al., 1990, J. Biol. Chem. 265:18546-18553; Farwell et al., 1993, J. Biol. Chem. 268:5055-5062). This allowed direct evaluation of the binding of fluorescent vesicles to F-actin without affinity radiolabeling of the p29 and subsequent SDS-PAGE analysis.
Specific fluorescence at 510 nm (excitation, 488 nm) was then determined in the resuspended Triton-insoluble pellets.
To determine if the myosin V tail could be captured by the p29^GFP vesicle, an exogenous myosin V^tail was introduced into astrocytes constitutively expressing p29^GFP by infection with Ad5-ΔMyo V^tail virus particles and examined the effects of T4 on the binding of the myosin V^tail to immunopurified p29^GFP vesicles. Astrocytes expressing p29^GFP were grown in serum-free media and treated for 16 hours with 1 mM bt2cAMP and 100 nM hydrocortisone. A separate pool of astrocytes was treated in serum-free media supplemented with 10 μM retinoic acid. Cells were collected by scraping, and lysed by two freeze-thaw cycles. […] Triton-soluble (vesicle) and Triton-insoluble (F-actin) fractions were separated by microflige centrifugation. Triton pellets were resuspended in 300 μl of PBS and fluorescence at 510 nm (excitation 488 nm) determined and relative fluorescence was reported as arbitrary units. Cells were treated with 10 nM T4 for twenty minutes and a Triton-soluble supernatant was prepared. Vesicles containing the p29^GFP were immunoprecipitated by anti-GFP IgG (2 μg/ml) and protein in the immunoprecipitates were resolved by SDS-PAGE. Immunoblot analysis of vesicle-associated myosin V was performed using the anti-myosin V antibody directed against the C-terminus.
The quantity of each mutant protein synthesized was determined by [^35 S]-methionine incorporation. Astrocytes expressing p29^GFP were grown in serum-free media and treated for 16 hours with […] bt2cAMP and 100 nM hydrocortisone. p29^GFP V-lysate and F-lysate were prepared as described herein. 100 μg aliquots of p29^GFP V-lysate and F-lysate were pre-incubated, in triplicate, for 20 minutes at 37° C. in the presence of individual Δ myosin V mutant proteins (˜2-3 pmol polypeptide/50 μl mixture) were added to the actin-binding assay and pre-incubated for 20 minutes at 37° C. T4 (10 nM) was then added, the mixtures incubated for 20 minutes at 37° C., and F-actin bound, fluorescent p29^GFP vesicles were then isolated in the Triton-insoluble pellet.
V lysates prepared from astrocytes over-expressing p29^GFP were pre-incubated for 30 minutes at room temperature with antisera raised against ΔTRα2, ΔTRα1, the C-terminus of MyoV (encoded by MyoV^tail, FIG. 5), the coiled-coil region of MyoV (encoded by MyoV^coil-coil, FIG. 5) and GFP (green fluorescent protein). T4 (10 nM) and actin fiber-containing F-lysate was then added, the mixtures incubated at 37° C. for 20 minutes, and the Triton-insoluble fraction isolated by centrifugation.

Δ myosin ^1830: myosin V tail deletion mutant, residues 1830-1852; vesicle-binding domain (NPSSLALETIQIPASLGLGFIAR)
increase of the t1/2 of FM1-43 retention ([1]; expression from Ad5 construct (MOI=10), T4 supplemented medium): 50%

N[C@@H](Cc1cc(I)c(Oc2ccc(O)c(I)c2)c(I)c1)C(=O)O [T3, 3,5, 3′-triiodothyronine]
endocytosed FM1-43 released ([2]; after three minutes of spontaneous activity): > 80%
uptake of FM1-43 ([2]; immediately after loading): No differences
retention of recycling synaptic vesicles ([1]; 10 nM hormone, continuous stimulation by 50 mM KCl): no effect
p29^GFP vesicle binding to F-actin, dose-response ([3]; 0-100 nM, below the highest concentration): did not increase
increase in p29^GFP vesicle binding to F-actin ([3]; 100 nM, highest concentration of hormone used): 10-20%

B1: myosin V tail lacking the last 44 residues (residues 953-1803): myosin V tail truncation mutant, residues 953-1803 (protein)
chain: LEGVYNSETEKLRNDVERLQLSEEEAKVATGRVLSLQEEIAKLRKDLEQTRSEKKSIEERADKYKQETDQLVSNLKEENTLLKQEKETLNHRIVEQAKEMTETMERKLVEETKQLELDLNDERLRYQNLLNEFSRLEERYDDLKEEMTLMLNVPKPGHKRTDSTHSSNESEYTFSSEFAETEDIAPRTEEPIEKKVPLDMSLFLKLQKRVTELEQEKQLMQDELDRKEEQVFRSKAKEEERPQIRGAELEYESLKRQELESENKKLKNELNELRKALSEKSAPEVTAPGAPAYRVLMEQLTSVSEELDVRKEEVLILRSQLVSQKEAIQPKDDKNTMTDSTILLEDVQKMKDKGEIAQAYIGLKETNRLLESQLQSQKRSHENEAEALRGEIQSLKEENNRQQQLLAQNLQLPPEARIEASLQHEITRLTNENLYFEELYADDPKKYQSYRISLYKRMIDLMEQLEKQDKTVRKLKKQLKVFAKKIGELEVGQMENISPGQIIDEPIRPVNIPRKEKDFQGMLEYKREDEQKLVKNLILELKPRGVAVNLIPGLPAYILFMCVRHADYLNDDQKVRSLLTSTINSIKKVLKKRGDDFETVSFWLSNTCRFLHCLKQYSGEEGFMKHNTSRQNEHCLTNFDLAEYRQVLSDLAIQIYQQLVRVLENILQPMIVSGMLEHETIQGVSGVKPTGLRKRTSSIADEGTYTLDSILRQLNSFHSVMCQHGMDPELIKQVVKQMFYIVGAITLNNLLLRKDMCSWSKGMQIRYNVSQLEEWLRDKNLMNSGAKETLEPLIQAAQLLQVKKKTDDDAEAICSMCNALTTAQIVKVLNLYTPVNEFEERVSVSFIRTIQ
competition with native myosin V for T4-dependent binding of p29 to F-actin [3]: did not compete

B2: A myosin V middle: myosin V truncation mutant corresponding to amino acids 504-1307 (protein)
chain: GILDLLDEECKMPKGTDDTWAQKLYNTHLNKCALFEKPRMSNKAFIIKHFADKVEYQCEGFLEKNKDTVFEEQIKVLKSSKFKMLPELFQDDEKAISPTSATSSGRTPLTRVPVKPTKGRPGQTAKEHKKTVGHQFRNSLHLLMETLNATTPHYVRCIKPNDFKFPFTFDEKRAVQQLRACGVLETIRISAAGFPSRWTYQEFFSRYRVLMKQKDVLGDRKQTCKNVLEKLILDKDKYQFGKTKIFFRAGQVAYLEKLRADKLRAACIRIQKTIRGWLLRKRYLCMQRAAITVQRYVRGYQARCYAKFLRRTKAATTIQKYWRMYVVRRRYKIRRAATIVIQSYLRGYLTRNRYRKILREYKAVIIQKRVRGWLARTHYKRTMKAIVYLQCCFRRMMAKRELKKLKIEARSVERYKKLHIGMENKIMQLQRKVDEQNKDYKCLMEKLTNLEGVYNSETEKLRNDVERLQLSEEEAKVATGRVLSLQEEIAKLRKDLEQTRSEKKSIEERADKYKQETDQLVSNLKEENTLLKQEKETLNHRIVEQAKEMTETMERKLVEETKQLELDLNDERLRYQNLLNEFSRLEERYDDLKEEMTLMLNVPKPGHKRTDSTHSSNESEYTFSSEFAETEDIAPRTEEPIEKKVPLDMSLFLKLQKRVTELEQEKQLMQDELDRKEEQVFRSKAKEEERPQIRGAELEYESLKRQELESENKKLKNELNELRKALSEKSAPEVTAPGAPAYRVLMEQLTSVSEELDVRKEEVLILRSQLVSQKEAIQPKDDKNTMTDSTILLEDVQKMKDKGE
competition with native myosin V for T4-dependent binding of p29 to F-actin [3]: did not compete

Reference: US7374890B2, “Methods for identifying compounds that modulate ΔTRα2 activity” (University of Massachusetts, priority 2000, dated 2008)
